According to BindingDB's records for doi:10.1021/jm960124f (1996):

What follows are compounds tested against Aldo-keto reductase family 1 member A1 (Bos taurus) (assay: Evaluated for inhibition of Aldehyde reductase 1).

| IC50 | SMILES |
| --- | --- |
| 289 µM | Cc1cc(C)c2c(c1)-c1nn(CCC(=O)O)c(=O)cc1CC2 [3-(7,9-Dimethyl-3-oxo-5,6-dihydro-3H-benzo[h]cinnolin-2-yl)-propionic acid] |
| 295 µM | Cc1cc(C)c2c(c1)-c1nn(CC(=O)O)c(=O)cc1CC2 [(7,9-Dimethyl-3-oxo-5,6-dihydro-3H-benzo[h]cinnolin-2-yl)-acetic acid] |

The next lines start with the compound.

| SMILES | IC50 |
| --- | --- |
| O=C(O)Cn1nc2c(c(C(=O)O)c1=O)CCc1ccccc1-2 [2-Carboxymethyl-3-oxo-2,3,5,6-tetrahydro-benzo[h]cinnoline-4-carboxylic acid] | 161 µM |
| O=C(O)Cn1nc2c(c(C(=O)O)c1=O)Cc1ccccc1-2 [2-Carboxymethyl-3-oxo-3,5-dihydro-2H-indeno[1,2-c]pyridazine-4-carboxylic acid] | 136 µM |
| O=C(O)CCCn1nc2c(cc1=O)CCc1ccccc1-2 [4-(3-Oxo-5,6-dihydro-3H-benzo[h]cinnolin-2-yl)-butyric acid] | 92.6 µM |
| O=C(O)Cn1nc2c(cc1=O)Cc1ccccc1-2 [(3-Oxo-3,5-dihydro-indeno[1,2-c]pyridazin-2-yl)-acetic acid] | 107 µM |
| O=C(O)Cn1nc2c(cc1=O)CCc1ccccc1-2 [(3-Oxo-5,6-dihydro-3H-benzo[h]cinnolin-2-yl)-acetic acid] | 156 µM |
